One assay concerns mice. The assay is described as follows: Phenylbenzoquinone (PBQ) Writhing Assay. The class given is in vivo, mouse (Charles River male albino mice). The settings on record: 30 min before PBQ; for ED50: Mus musculus, 0.5 h. An excerpt: The Writhing Assay is one of the most widely-used experimental procedures for measuring the analgesic activity of different narcotic and nonnarcotic analgesic agents, and involves the continuous, chemically-induced pain of visceral origin to an animal, such as a mouse or rat. [Gyires et al., Arch. int. Pharmacodyn, 267, 131-140 (1984); C. Vander Wende et al., Fed. Proc., 15, 494 (1956); Koster et al., Fed. Proc., 18, 412 (1959); and Witken et al., J. PharmacoI. exp. Tger., 133, 400-408 (1961).] Chemicals which may be used to induce this pain include phenylbenzoquinone (PBQ) and acetic acid. As a result of the chemical irritation to the animal, a characteristic stretching and writhing of the animal (dorsiflexion of the animal's back, extension of its hindlimbs and the strong contraction of its abdominal musculature) will generally occur. […] Drugs which reduce the number of writhes of the animal appear to restore the normal nociceptive threshold of the animal.
Charles River male albino mice, weighing 20 to 30 grams were used in this assay.
Thirty minutes after subcutaneous or intragastric administration to ten mice of either 10 mg or 30 mg per kilogram of body weight of a compound of the present invention ("test compound"), […] of body weight of a 0.025% w/v solution of PBQ was injected intraperitoneally into each mouse. Ten mice which were given saline in place of a test compound of the invention were used as a control group.
Five minutes later, each mouse was individually placed into a glass beaker for observation, and the number of writhes occurring during the following ten-minute period was counted.
A test compound was considered to be "active" in this assay (to have produced analgesia in a mouse) if, after the administration of the compound to the mouse, the number of writhes elicited by a mouse injected with PBQ was equal to, or less than, one-half the median number of writhes recorded for the saline-treated control group of mice that day, as described by Taber in "Predictive Value of Analgesic Assays in Mice and Rats," Advances in Biochemical Psychopharmacology, 8, 191 (1974).
The standard initial screening doses of a test compound employed in this assay were 10 and/or 30 […] for both routes of administration.

Another assay has as its target μ opioid receptors (Rattus norvegicus, UniProt P33535). The assay is described as follows: Opiate Binding Assay, displacement of 3[H]-DAMGO (μ receptor).
The next assay concerns the target δ opioid receptors (Rattus norvegicus, UniProt P33533). The assay is described as follows: Opiate Binding Assay, displacement of 3[H]-DSLET (δ receptor). To be noted: for Mean IC50 μ/δ Ratio: ratio of mean IC50 values for μ and δ opioid receptors.
[1] abbreviates: po, intragastric, read-out: PBQ WRITHING ASSAY ED50 (mpk) I.G.
The mark [2] stands for this setting: sc, subcutaneous, read-out: PBQ WRITHING ASSAY ED50 (mpk) S.C.

SMILES strings stand for the structures. Counter-ions that a name gives are not always drawn. Like-named read-outs stand apart in the source and are kept apart here.

Sequence of δ opioid receptors (P33533 whole entry): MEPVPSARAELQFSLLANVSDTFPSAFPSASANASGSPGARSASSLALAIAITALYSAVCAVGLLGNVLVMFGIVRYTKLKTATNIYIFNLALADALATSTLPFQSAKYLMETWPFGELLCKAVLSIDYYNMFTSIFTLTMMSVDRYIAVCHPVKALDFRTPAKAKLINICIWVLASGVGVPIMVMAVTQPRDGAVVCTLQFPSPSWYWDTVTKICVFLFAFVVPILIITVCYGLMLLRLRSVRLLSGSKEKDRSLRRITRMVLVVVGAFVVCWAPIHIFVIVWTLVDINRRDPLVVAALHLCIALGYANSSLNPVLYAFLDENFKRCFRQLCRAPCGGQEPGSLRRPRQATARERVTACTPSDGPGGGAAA
Sequence of μ opioid receptors (P33535 whole entry): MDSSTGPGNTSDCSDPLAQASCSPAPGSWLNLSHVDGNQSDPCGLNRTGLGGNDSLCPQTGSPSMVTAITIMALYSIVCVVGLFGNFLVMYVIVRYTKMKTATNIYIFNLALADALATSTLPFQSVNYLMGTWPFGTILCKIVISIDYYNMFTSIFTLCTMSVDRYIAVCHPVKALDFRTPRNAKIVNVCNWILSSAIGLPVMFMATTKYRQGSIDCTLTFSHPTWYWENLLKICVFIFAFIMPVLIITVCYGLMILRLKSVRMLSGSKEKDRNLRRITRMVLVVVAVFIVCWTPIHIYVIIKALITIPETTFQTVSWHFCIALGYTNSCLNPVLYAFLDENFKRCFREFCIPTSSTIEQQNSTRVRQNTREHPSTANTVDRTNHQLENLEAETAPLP

`COc1ccc2c3c1O[C@H]1c4oc5ccccc5c4C[C@@]4(O)[C@@H](C2)N(C)CC[C@]314` [V, 6,7,8,14bβ-Tetrahydro-1-methoxy-7-methyl-4,8(R,α)-methano-4bS^* -5H-bisbenzofuro [3,2-e:2',3'-g]isoquinolin-8aβ(9H)-ol]: in the assay with mice (setting [1]), the ED50 was 2.7 mg/kg. The “PBQ WRITHING ASSAY ED50 (mpk) S.C.” value in the assay on mice (subcutaneous) is “inactive”. Further, the “Percent Inhibition, mu” value at μ opioid receptors (at 100 nm, rat forebrain membranes, 3[H]-DAMGO) worked out at 2%. Also, the “Percent Inhibition, delta” value on δ opioid receptors (at 100 nm, rat forebrain membranes, 3[H]-DSLET) is recorded as 72%.

As for `CN1CC[C@]23c4c5ccc(O)c4O[C@H]2c2[nH]c4c(Br)cccc4c2C[C@@]3(O)[C@H]1C5` [VII, 13-Bromo-5,6,7,8,14bβ-hexahydro-7-methyl-4,8(R,α)-methano-4bS^* -benzofuro[2,3-a]pyrido [4,3-b]carbazole-1,8aβ(9H)-diol, monohydrochloride], the median effective dose (ED50) is 2.3 mg/kg in the assay on mice (setting [1]) and 0.9 mg/kg in the assay on mice (setting [2]). Besides, the results for the half-maximal inhibitory concentration (IC50) at μ opioid receptors and on δ opioid receptors were 253 nM and 10 nM, respectively. Also, the “Mean IC50 μ/δ Ratio” value on δ opioid receptors was found to be 25.3.

Take `CN1CC[C@]23c4c5ccc(O)c4O[C@H]2c2oc4ccccc4c2C[C@@]3(O)[C@H]1C5` [II, 6,7,8,14bβ-Tetrahydro-7-methyl-4,8(R,α)-methano-4bS^* -5H-bisbenzofuro[3,2-e:2',3'-g]isoquinoline-1, 8aβ(9H)-diol, monohydrochloride]: the median effective dose (ED50) in the assay on mice (setting [1]) was 2.4 mg/kg; with mice (setting [2]), 0.2 mg/kg. For the same compound, the concentration for half-maximal inhibition (IC50) at μ opioid receptors came out at 93 nM; at δ opioid receptors, 5.4 nM. The “Mean IC50 μ/δ Ratio” value on δ opioid receptors is 17.

For the origin of these results see patent US5223507A, “Method of using opioid compounds as delta opioid selective agonist analgesics” (G. D. Searle & Co., priority 1992, dated 1993).
